* marks the point of attachment. Biotin = O=C1N[C@H]2[C@H](CS[C@H]2CCCCC(=O)*)N1
Assays:
SH3 domain of Abl = SH3 domain of Abl (Homo sapiens, UniProt P00519); assay: Stated SH3 domain binding of recognition unit
SH3 domain of Abl, sequence (P00519 61-121 limits assumed): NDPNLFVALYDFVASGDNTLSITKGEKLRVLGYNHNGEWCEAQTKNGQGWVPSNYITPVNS

Substance | binding to the SH3 domain of Abl (SH3 domain of Abl) | binding to the SH3 domain of Nck (SH3 domain of Nck)
Biotin-SRPPRWSPPPVPLPTSLDSR-NH2 [PXXP.ABL.G1/2M] | bind | –
Biotin-SRSLSEVSPKPPIRSVSLSR-NH2 [PXXP.NCK.S1/4] | – | bind
